Experimental data: US9725459B2, “3-oxo-tetrahydro-furo[3,2-B]pyrrol-4(5H)-yl) derivatives I” (GRÜNENTHAL GMBH, priority 2014, dated 2017)

What was measured:
[1] = Caco 2 permeability assay; format: in vitro ADME, human; details: human; for efflux ratio at 120 min, 10 μM: pH 7.4, efflux ratio ER=Peff(B−A)/Peff(A−B), Caco-2; for Papp A→B at 120 min, 10 μM / Papp B→A at 120 min, 10 μM: Caco-2 monolayer, HBSS pH 7.4; for Papp A→B at 120 min, 10 μM: apical to basolateral, read-out: Peff a − b; for Papp B→A at 120 min, 10 μM: basolateral to apical, read-out: Peff b − a
Method: (§1) The intestinal permeability of a potential drug is assessed by in vitro cell culture from a human colon adenoma-carcinoma derived cell line. This cell line expresses some of the systems considered relevant to active drug transport e.g. […] (P-gp). In vitro cellular permeability assays can reflect both, permeation by passive diffusion and active transport (uptake and efflux). The rate of permeation across monolayers of Caco 2 cells were correlated to the extents of absorption (Hidalgo et al., Gastroenterology 1989; 96(3):736 49). Original methodology was developed by Artursson and Taveli (Drug Bioavailability. Series: Methods and Principles in Medicinal Chemistry. Weinheim: Wiley-VCH Verlag; 2003; p. 72-89).
(§2) The assay is performed as a trans-flux experiment. Caco-2 cells (cells from ATCC) are seeded and grown to confluence to form a monolayer (ca. 3 weeks, between passage numbers 40-60) on a readily permeable support in a plastic well supported within a chamber (Millipore Multiscreen Caco-2 plates, at a cell density of ca. 1×10^5 cells/cm^2). Cells are cultured for 20 days in DMEM and media is changed every two or three days. The cells form tight junctions, so paracellular diffusion is not possible, and grow in a polarised manner, efflux transporters (P-gp) are expressed on their apical surfaces facing the culture medium, rather than at their basolateral surfaces through which they are attached to the support membrane. A low concentration of a test compound is added to the upper (apical: A) or lower (basolateral: B) chambers, and the rate of loss from the donor compartment, and the rate of transfer to the acceptor chamber, is determined by LC-MS/MS. Consequently the influence of efflux transporters expressed in the apical membrane can be determined by comparing permeability rates from A to B and B to A. Assays are generally performed in gently shaken protein-free buffer.
(§3) On ca. day 20 the permeability study is performed. The monolayers are prepared by rinsing both basolateral and apical surfaces twice with Hanks Balanced Salt Solution (HBSS) pH 7.4 buffer with HEPES (25 mM) and 4.45 mM glucose at 37° C. Cells are then incubated with HBSS in both apical and basolateral compartments for 40 min to stabilise physiological parameters. Incubations are carried out in an atmosphere of 5% CO2 with a rel. humidity of 95% at 37° C.
(§4) HBSS is next removed from the apical compartment and replaced with test compound dosing solution. Test compound dosing solutions are made by diluting 10 mM test compound in DMSO with HBSS to give a final test compound concentration of 10 μM (final DMSO concentration 1%).
(§5) The fluorescent integrity marker lucifer yellow is also included in the dosing solution. Analytical standards are made from dosing solutions. The apical compartment inserts are then placed into ‘companion’ plates containing fresh HBSS. For basolateral to apical (B-A) permeability determination the experiment is initiated by replacing buffer in the inserts then placing them in companion plates containing dosing solutions. At 120 min the companion plate is removed and apical and basolateral samples diluted for analysis by LC-MS/MS. Test compound permeability is assessed in duplicate. […] Talinolol (a known P-gp substrate 2) is also included as a control compound to assess whether functional P-gp is present in the Caco-2 cell monolayer.
(§6) Test and control compounds are quantified by LC-MS/MS cassette analysis using a 5-point calibration with appropriate dilution of the samples. The starting concentration (C0) and experimental recovery are calculated from both apical and basolateral compartment concentrations.
(§7) Apparent permeability (Papp), used interchangeably with effective permeability (Peff) and efflux ratio (ER) are generated for each compound and reference compound. The permeability coefficient for each compound (Papp) is calculated from the following equation: Peff=dQ/dt/C0×A […]

Caco-2 cells = assay: Caco 2 permeability assay; format: in vitro ADME, human; details: Caco-2, verbal assessment
Method: as §1, §2, §3, §4, §5, §6, §7

human cathepsin L (CatL) = human cathepsin L (CatL) (Homo sapiens (Human), UniProt P07711); assay: CatL functional enzyme assay; format: biochemical; details: read-out: hCatL, inhibition [%] at 31.6 μM
human cathepsin S (CatS) = human cathepsin S (CatS) (Homo sapiens (Human), UniProt P25774); assay: CatS functional enzyme assay; format: biochemical; details: for Selectivity Ki(hCatS)/Ki(hCatK): ratio Ki(hCatS)/Ki(hCatK); for Ki: recombinant human CatS, substrate Z-VVR-AMC 5 μM, pH 6.5, Ki by Cheng Prusoff equation, read-out: hCatS, Ki
Method in brief: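 Recombinant human enzymes were incubated 10 min at RT with AMC substrate: CatS 0.0007 mU/well with Z-VVR-AMC 5 µM; CatK 0.00175 mU/well with Z-FR-AMC 40 µM; CatL 0.000874 mU/well with Z-VVR-AMC 40 µM. Fluorescence gave IC50, converted to Ki by Cheng-Prusoff.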

human cathepsin K (CatK) = human cathepsin K (CatK) (Homo sapiens (Human), UniProt P43235); assay: CatK functional enzyme assay; format: biochemical; details: recombinant human CatK, substrate Z-FR-AMC 40 μM, pH 5.5; Ki by Cheng Prusoff equation; read-out: hCatK, Ki
Method in brief: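 Recombinant human enzymes in 50 mM NaOAc, 10 mM EDTA, 1 mM DTT, 0.01% Triton X-100, pH 5.5, 10 min at RT. CatK: 0.00175 mU/well with 40 μM Z-FR-AMC; CatL: 0.000874 mU/well with 40 μM Z-VVR-AMC. AMC fluorescence read; IC50 converted to Ki via Cheng–Prusoff.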

Sequence of human cathepsin L (CatL) (P07711 114-333): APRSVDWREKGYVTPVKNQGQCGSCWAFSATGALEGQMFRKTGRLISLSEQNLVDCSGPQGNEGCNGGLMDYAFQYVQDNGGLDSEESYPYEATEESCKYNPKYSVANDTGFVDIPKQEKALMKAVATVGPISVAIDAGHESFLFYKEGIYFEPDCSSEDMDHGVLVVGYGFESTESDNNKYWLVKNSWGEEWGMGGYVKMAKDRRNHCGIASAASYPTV
Sequence of human cathepsin S (CatS) (P25774 115-331): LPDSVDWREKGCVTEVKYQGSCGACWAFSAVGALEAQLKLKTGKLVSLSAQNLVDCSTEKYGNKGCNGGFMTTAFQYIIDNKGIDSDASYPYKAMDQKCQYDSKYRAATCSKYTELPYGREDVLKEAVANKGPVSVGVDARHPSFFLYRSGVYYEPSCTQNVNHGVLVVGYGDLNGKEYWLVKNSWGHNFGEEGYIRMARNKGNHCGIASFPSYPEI
Sequence of human cathepsin K (CatK) (P43235 115-329): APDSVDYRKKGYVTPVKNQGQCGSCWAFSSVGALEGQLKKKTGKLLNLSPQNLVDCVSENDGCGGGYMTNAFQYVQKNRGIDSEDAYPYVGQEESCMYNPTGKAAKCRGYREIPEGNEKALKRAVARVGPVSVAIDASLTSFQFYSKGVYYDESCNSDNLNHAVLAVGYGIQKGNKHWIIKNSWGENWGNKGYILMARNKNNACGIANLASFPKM

Compound | efflux ratio at 120 min, 10 μM [1] | Papp A→B at 120 min, 10 μM [1] | Papp B→A at 120 min, 10 μM [1] | A to B permeability (in words) (Caco-2 cells) | B to A permeability (in words) (Caco-2 cells) | efflux ratio (ER) (in words) (Caco-2 cells) | inhibition at 31.6 µM (human cathepsin L (CatL)) | Selectivity Ki(hCatS)/Ki(hCatK) (human cathepsin S (CatS)) | Ki (human cathepsin S (CatS)) | Ki (human cathepsin K (CatK))
O=C(N[C@H](C(=O)N1C[C@H](Cl)[C@H]2OCC(=O)[C@H]21)C1CCCCC1)c1ccc(-c2ccnnc2)s1 [Example 8, N-((S)-2-((3aS,6S,6aS)-6-chloro-3-oxotetrahydro-2H-furo[3,2-b]pyrrol-4(5H)-yl)-1-cyclohexyl-2-oxoethyl)-5-(pyridazin-4-yl)thiophene-2-carboxamide] | 7.5 | 1.67 ×10⁻⁶ cm/s | 12.5 ×10⁻⁶ cm/s | moderate | good | intermediate/low | 32% | 1.2 | 21 nM | 17 nM
O=C(N[C@H](C(=O)N1C[C@H](Cl)[C@H]2OCC(=O)[C@H]21)C1CCCCC1)c1ccc(-c2cncnc2)s1 [Example 5, N-((S)-2-((3aS,6S,6aS)-6-chloro-3-oxotetrahydro-2H-furo[3,2-b]pyrrol-4(5H)-yl)-1-cyclohexyl-2-oxoethyl)-5-(pyrimidin-5-yl)thiophene-2-carboxamide] | 3.5 | 4.13 ×10⁻⁶ cm/s | 14.2 ×10⁻⁶ cm/s | moderate | good | intermediate/low | 27% | 1.5 | 48 nM | 31 nM
O=C(N[C@H](C(=O)N1C[C@H](Cl)[C@H]2OCC(=O)[C@H]21)C1CCCCC1)c1ccc(-c2ccncn2)s1 [Example 7, N-((S)-2-((3aS,6S,6aS)-6-chloro-3-oxotetrahydro-2H-furo[3,2-b]pyrrol-4(5H)-yl)-1-cyclohexyl-2-oxoethyl)-5-(pyrimidin-4-yl)thiophene-2-carboxamide] | 1.3 | 5.37 ×10⁻⁶ cm/s | 7.03 ×10⁻⁶ cm/s | moderate | good | intermediate/low | 28% | 4.7 | 56 nM | 12 nM
O=C(N[C@H](C(=O)N1C[C@H](Cl)[C@H]2OCC(=O)[C@H]21)C1CCCCC1)c1ccc(-c2ccnnc2)o1 [Example 19, N-((S)-2-((3aS,6S,6aS)-6-chloro-3-oxotetrahydro-2H-furo[3,2-b]pyrrol-4(5H)-yl)-1-cyclohexyl-2-oxoethyl)-5-(pyridazin-4-yl)furan-2-carboxamide] |  |  |  |  |  |  | 12% | 0.8 | 74 nM | 93 nM

Second part, the molecule after the results:

efflux ratio at 120 min, 10 μM [1] | Papp A→B at 120 min, 10 μM [1] | Papp B→A at 120 min, 10 μM [1] | A to B permeability (in words) (Caco-2 cells) | B to A permeability (in words) (Caco-2 cells) | efflux ratio (ER) (in words) (Caco-2 cells) | inhibition at 31.6 µM (human cathepsin L (CatL)) | Selectivity Ki(hCatS)/Ki(hCatK) (human cathepsin S (CatS)) | Ki (human cathepsin S (CatS)) | Ki (human cathepsin K (CatK)) | Compound
46.1 | 0.53 ×10⁻⁶ cm/s | 24.6 ×10⁻⁶ cm/s | poor | good | extremely high | 71% | 3.8 | 146 nM | 38 nM | O=C(N[C@H](C(=O)N1C[C@H](Cl)[C@H]2OCC(=O)[C@H]21)C1CCCCC1)c1cccc(-c2cn[nH]c2)c1 [Example C1, N-((S)-2-((3aS,6S,6aS)-6-chloro-3-oxotetrahydro-2H-furo[3,2-b]pyrrol-4(5H)-yl)-1-cyclohexyl-2-oxoethyl)3-(1H-pyrazol-4-yl)benzamide, reference compound]
 |  |  |  |  |  | 18% | 25.4 | 356 nM | 14 nM | Cc1ccc(-c2cnc(C(=O)N[C@H](C(=O)N3C[C@H](Cl)[C@H]4OCC(=O)[C@H]43)C3CCCCC3)s2)cn1 [Example 42, N-((S)-2-((3aS,6S,6aS)-6-chloro-3-oxotetrahydro-2H-furo[3,2-b]pyrrol-4(5H)-yl)-1-cyclohexyl-2-oxoethyl)-5-(6-methylpyridin-3-yl)thiazole-2-carboxamide]
 |  |  |  |  |  | 24% | 1.1 | 9 nM | 8 nM | Cc1cc(-c2ccc(C(=O)N[C@H](C(=O)N3C[C@H](Cl)[C@H]4OCC(=O)[C@H]43)C3CCCCC3)s2)cnn1 [Example 69, N-((S)-2-((3aS,6S,6aS)-6-chloro-3-oxotetrahydro-2H-furo[3,2-b]pyrrol-4(5H)-yl)-1-cyclohexyl-2-oxoethyl)-5-(6-methylpyridazin-4-yl)thiophene-2-carboxamide]
 |  |  |  |  |  | 16% | 3.2 | 769 nM | 243 nM | N#Cc1cncc(-c2cnc(C(=O)N[C@H](C(=O)N3C[C@H](Cl)[C@H]4OCC(=O)[C@H]43)C3CCCCC3)s2)c1 [Example 43, N-((S)-2-((3aS,6S,6aS)-6-chloro-3-oxotetrahydro-2H-furo[3,2-b]pyrrol-4(5H)-yl)-1-cyclohexyl-2-oxoethyl)-5-(5-cyanopyridin-3-yl)thiazole-2-carboxamide]
